The values that follow come from US9969775B2, “CGRP antagonist peptides” (Ferring B.V., priority 2015, dated 2018).

As usually defined, the IC50 is the concentration that inhibits the measured activity by half.

Assay [1] addresses T1, hCGRP receptor (CALCRL:RAMP1) (Homo sapiens, UniProt O60894+Q16602).
T1 construct: host or cells: GeneBLAzer CALCRL:RAMP1-CRE-bla Freestyle 293F
Put plainly: CGRP receptor antagonist activity measured by cAMP assay (HTRF). The assay is classed as cell-based. The conditions noted are these: agonist human α-CGRP; for Emax: % MPE: percent of the maximal possible effect, read-out: hCGRP-R Efficacy Antag (%) Ave; for IC50: GeneBLAzer CALCRL:RAMP1-CRE-bla Freestyle 293F cells, 30 minutes, read-out: hCGRP-R IC50 Ave. On the procedure:
Example 6: CGRP Receptor Antagonist Activity Measured by cAMP Assay
CGRP receptor agonists increase intracellular cyclic adenosine mono-phosphate (cAMP). CGRP receptor antagonists can reduce the agonist effect. Antagonist activity was assessed by measurement of cyclic adenosine mono-phosphate (cAMP) using cell line stably expressing the hCGRP receptor (GeneBLAzer® CALCRL:RAMP1-CRE-bla Freestyle™ 293F, Invitrogen). hCGRP receptor expressing cells were maintained in DMEM high-glucose with GlutaMAX™ containing 10% (v/v) FBS, 0.1 mM NEAA, 25 mM HEPES, 5 ug/ml Blasticidin, 100 ug/ml Hygromycin, and 400 ug/ml Geneticin at 37° C. under 5% CO2 in a humidified atmosphere. For cAMP measurement, cells were washed once with 5 ml 1×PBS, cell maintenance media was replaced with compound buffer ((CB): DMEM containing 0.1% BSA and 0.5 mM IBMX), and flasks were incubated for 1 hour at 37° C. under 5% CO2 in a humidified atmosphere. Cells were removed from culture flasks using non-enzymatic cell dissociation buffer and harvested in CB. The reaction was performed in 384 well white small volume plates (Greiner) at a density of 10,000 cells/well. Cells were exposed to varying concentrations of antagonist compounds for 30 minutes in the presence of a fixed concentration of agonist (human α-CGRP). cAMP levels were measured using an HTRF (homogeneous time resolved fluorescence)-based competitive cAMP immunoassay (cAMP Dynamic 2 Kit, Cisbio), according to the manufacturer's instructions. […] Reported parameters include antagonist potency IC50 (the concentration causing half-maximal inhibition of the agonist response for antagonist compounds) and efficacy (% MPE: percent of the maximal possible effect).

Assay [2] deals with T2, hAM2 receptor (CALCRL:RAMP3) (Homo sapiens, UniProt O60896+Q16602).
T2 construct: expressed in transfected cells; host or cells: GeneBLAzer CALCRL:RAMP3-CRE-bla Freestyle 293F
The assay can be described thus: AM2 receptor antagonist activity measured by cAMP assay (HTRF). The assay is classed as cell-based. The conditions noted are these: for Emax: % MPE: percent of the maximal possible effect, read-out: hAM2-R Efficacy Antag (%) Ave; for Emax / IC50: agonist human adrenomedullin; for IC50: GeneBLAzer CALCRL:RAMP3-CRE-bla Freestyle 293F cells, read-out: hAM2-R IC50 Ave; for selectivity ratio CGRP/AM2: selectivity ratio for hCGRP over hAM2, calculated from the IC50 values.

Numbered stars: 1 amine (or outer) side, 2 acyl side, 3 side chain; on linkers, the order of the positions; unused ones are H or OH. Bridge positions count the residues as written; N and C are the ends. Square brackets hold non-standard residues; d marks the D form. Peptide text beside a SMILES is read from it. * marks the point of attachment. Phe(3-CH2NH2) = O=C([C@H](Cc1cccc(CN[*:3])c1)N[*:1])[*:2]; Phe(2-CONH2) = NC(=O)c1ccccc1C[C@H](N)C(=O)O; Phe(4-CH2NH2) = NCc1ccc(C[C@H](N)C(=O)O)cc1; X13 = N#CN=C(N)NCC[C@H](N[*:1])C(=O)[*:2]; Phe(3-CN) = N#Cc1cccc(C[C@H](N)C(=O)O)c1; Picolinoyl(5-F) = O=C(c1ccc(F)cn1)*; Orn(iPr) = CC(C)NCCC[C@H](N)C(=O)O; Benzoyl(4-F) = O=C(c1ccc(F)cc1)*; 3Pal = N[C@@H](Cc1cccnc1)C(=O)O; ΔPro = O=C(O)[C@@H]1C=CCN1; Orn = NCCC[C@H](N)C(=O)O; X8 = CC(C)NCCOCCOCC(=O)*; X7 = O=C(c1cc(F)ccn1)*; X1 = O=C(c1ncccc1F)*; X6 = O=C(c1ccncn1)*

T1 sequence (Q16602 23-461): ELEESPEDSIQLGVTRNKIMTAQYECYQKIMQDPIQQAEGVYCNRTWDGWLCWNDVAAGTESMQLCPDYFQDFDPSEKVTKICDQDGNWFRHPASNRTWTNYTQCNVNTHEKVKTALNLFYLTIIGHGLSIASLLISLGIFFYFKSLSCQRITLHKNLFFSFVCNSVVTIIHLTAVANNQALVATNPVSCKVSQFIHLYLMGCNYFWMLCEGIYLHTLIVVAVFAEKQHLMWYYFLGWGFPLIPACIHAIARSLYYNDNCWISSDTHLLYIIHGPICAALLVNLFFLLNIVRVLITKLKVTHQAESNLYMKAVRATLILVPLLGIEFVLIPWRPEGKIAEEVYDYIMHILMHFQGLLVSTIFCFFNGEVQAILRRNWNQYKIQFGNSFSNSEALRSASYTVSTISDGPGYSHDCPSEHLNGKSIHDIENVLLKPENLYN
T1 sequence (O60894 27-148): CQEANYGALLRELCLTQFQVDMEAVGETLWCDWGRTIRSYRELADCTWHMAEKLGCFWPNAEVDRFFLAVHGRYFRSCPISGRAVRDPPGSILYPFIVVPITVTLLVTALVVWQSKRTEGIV
T2 sequence (Q16602 23-461): as the sequence (Q16602 23-461) above
T2 sequence (O60896 24-148): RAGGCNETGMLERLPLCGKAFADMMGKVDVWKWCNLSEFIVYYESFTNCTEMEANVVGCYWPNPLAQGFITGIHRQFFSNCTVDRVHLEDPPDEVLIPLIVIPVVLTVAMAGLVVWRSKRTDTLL

In the case of `CC(C)[C@@H]1NC(=O)[C@H](CC(=O)O)NC(=O)[C@H](CCCN)NC(=O)[C@@H](NC(=O)[C@H](Cc2ccc(O)cc2)NC(=O)[C@H](NC(=O)c2ccc(F)cn2)C(C)C)CSSC[C@@H](C(=O)N[C@@H](Cc2cccnc2)C(N)=O)NC(=O)[C@H](Cc2ccccc2)NC(=O)[C@@H]2CCCN2C(=O)CNC1=O` [Compound 12, Picolinoyl(5-F)-D-Val-Tyr-c(Cys-Orn-Asp-Val-Gly-Pro-Phe-Cys)-3Pal-NH2] ({Picolinoyl(5-F)}-[dV]YC[Orn]DVGPFC[3Pal]-NH2; disulfide 3-10), in assay [1], the Emax was 100% and the IC50 is 0.11 nM. In assay [2], the Emax is 100%, the IC50 is 18 nM and the “selectivity ratio CGRP/AM2” value is reported as 172.

For `CC(C)NCCOCCOCC(=O)NCCC[C@@H]1NC(=O)[C@@H](NC(=O)[C@H](Cc2ccc(O)cc2)NC(=O)[C@H](NC(=O)c2ccc(F)cn2)C(C)C)CSSC[C@@H](C(=O)N[C@@H](Cc2cccnc2)C(N)=O)NC(=O)[C@H](Cc2ccccc2)NC(=O)[C@@H]2CCCN2C(=O)CNC(=O)[C@H](C(C)C)NC(=O)[C@H](CC(=O)O)NC1=O` [Compound 13, Picolinoyl(5-F)-D-Val-Tyr-c(Cys-Orn(CO—CH2—(O—(CH2)2)2—NH-iPr)-Asp-Val-Gly-Pro-Phe-Cys)-3Pal-NH2] ({Picolinoyl(5-F)}-[dV]YC[Orn](X8)DVGPFC[3Pal]-NH2; disulfide 3-10), in assay [1], the Emax is 100% and the half-inhibitory concentration (IC50) is 0.1 nM. In addition, in assay [2], the Emax is 100%, the IC50 is 26 nM and the “selectivity ratio CGRP/AM2” value was 249.

As to `CC(C)NCCC[C@@H]1NC(=O)[C@@H](NC(=O)[C@H](Cc2ccc(O)cc2)NC(=O)[C@H](NC(=O)c2ccc(F)cn2)C(C)C)CSSC[C@@H](C(=O)N[C@@H](Cc2cccnc2)C(N)=O)NC(=O)[C@H](Cc2ccccc2)NC(=O)[C@@H]2CCCN2C(=O)CNC(=O)[C@H](C(C)C)NC(=O)[C@H](CC(=O)O)NC1=O` [Compound 14, Picolinoyl(5-F)-D-Val-Tyr-c(Cys-Orn(iPr)-Asp-Val-Gly-Pro-Phe-Cys)-3Pal-NH2] ({Picolinoyl(5-F)}-[dV]YC[Orn(iPr)]DVGPFC[3Pal]-NH2; disulfide 3-10), in assay [1], the Emax was 100% and the IC50 is 0.12 nM. Besides, in assay [2], the Emax was 100%, the IC50 was 20 nM and the “selectivity ratio CGRP/AM2” value was 167.

Take `CC(C)[C@@H]1NC(=O)[C@H](CC(=O)O)NC(=O)[C@H](CCCNC(=N)N)NC(=O)[C@@H](NC(=O)[C@H](Cc2ccccc2C(N)=O)NC(=O)[C@H](NC(=O)c2ccc(F)cc2)C(C)C)CSSC[C@@H](C(=O)N[C@@H](Cc2cccnc2)C(N)=O)NC(=O)[C@H](Cc2ccccc2)NC(=O)[C@@H]2CCCN2C(=O)CNC1=O` [Compound 15] ({Benzoyl(4-F)}-[dV][Phe(2-CONH2)]CRDVGPFC[3Pal]-NH2; disulfide 3-10): in assay [1], the Emax is 100% and the half-maximal inhibitory concentration (IC50) is 0.1 nM. Also, in assay [2], the Emax is 99%, the half-maximal inhibitory concentration (IC50) was 58 nM and the “selectivity ratio CGRP/AM2” value is given as 610.

For the compound `CC(C)[C@@H]1NC(=O)[C@H](CC(=O)O)NC(=O)[C@H](CCCNC(=N)N)NC(=O)[C@@H](NC(=O)[C@H](Cc2ccc(O)cc2)NC(=O)[C@H](NC(=O)c2ccncn2)C(C)C)CSSC[C@@H](C(=O)N[C@@H](Cc2cccnc2)C(N)=O)NC(=O)[C@H](Cc2ccccc2)NC(=O)[C@@H]2CCCN2C(=O)CNC1=O` [Compound 16] (X6-[dV]YCRDVGPFC[3Pal]-NH2; disulfide 3-10), in assay [1], the Emax is 100% and the half-maximal inhibitory concentration (IC50) is 0.07 nM. Further, in assay [2], the Emax was 101%, the IC50 is 6.8 nM and the “selectivity ratio CGRP/AM2” value was 93.

Consider `CC(C)[C@@H]1NC(=O)[C@H](CC(=O)O)NC(=O)[C@H](CCCNC(=N)N)NC(=O)[C@@H](NC(=O)[C@H](Cc2ccc(O)cc2)NC(=O)[C@H](NC(=O)c2ncccc2F)C(C)C)CSSC[C@@H](C(=O)N[C@@H](Cc2cccnc2)C(N)=O)NC(=O)[C@H](Cc2ccccc2)NC(=O)[C@@H]2CCCN2C(=O)CNC1=O` [Compound 17] (X1-[dV]YCRDVGPFC[3Pal]-NH2; disulfide 3-10), for which, in assay [1], the Emax was 100% and the IC50 was 0.05 nM. Moreover, in assay [2], the Emax was 100%, the half-maximal inhibitory concentration (IC50) is 7.1 nM and the “selectivity ratio CGRP/AM2” value was 148.

With `CC(C)[C@@H]1NC(=O)[C@H](CC(=O)O)NC(=O)[C@H](CCCNC(=N)N)NC(=O)[C@@H](NC(=O)[C@H](Cc2ccc(O)cc2)NC(=O)[C@H](NC(=O)c2cc(F)ccn2)C(C)C)CSSC[C@@H](C(=O)N[C@@H](Cc2cccnc2)C(N)=O)NC(=O)[C@H](Cc2ccccc2)NC(=O)[C@@H]2CCCN2C(=O)CNC1=O` [Compound 18] (X7-[dV]YCRDVGPFC[3Pal]-NH2; disulfide 3-10), in assay [1], the Emax was 100% and the IC50 was 0.16 nM. For the same compound, in assay [2], the Emax is 98%, the IC50 was 8.1 nM and the “selectivity ratio CGRP/AM2” value is given as 52.

Take `CC(C)[C@@H]1NC(=O)[C@H](CC(=O)O)NC(=O)[C@H](CCNC(N)=NC#N)NC(=O)[C@@H](NC(=O)[C@H](Cc2ccc(O)cc2)NC(=O)[C@H](NC(=O)c2ccc(F)cc2)C(C)C)CSSC[C@@H](C(=O)N[C@@H](Cc2cccnc2)C(N)=O)NC(=O)[C@H](Cc2ccccc2)NC(=O)[C@@H]2CCCN2C(=O)CNC1=O` [Compound 19, Bz(4-F)-D-Val-Tyr-c(Cys-norArg(CN)-Asp-Val-Gly-Pro-Phe-Cys)-3Pal-NH2] ({Benzoyl(4-F)}-[dV]YC[X13]DVGPFC[3Pal]-NH2; disulfide 3-10): the Emax in assay [1] and in assay [2] was 100% throughout.

Consider `CC(C)[C@@H]1NC(=O)[C@H](CC(=O)O)NC(=O)[C@H](CCCNC(=N)N)NC(=O)[C@@H](NC(=O)[C@H](Cc2ccc(O)cc2)NC(=O)[C@H](NC(=O)c2ccc(F)cc2)C(C)C)CSSC[C@@H](C(=O)N[C@@H](Cc2cccnc2)C(N)=O)NC(=O)[C@H](Cc2ccc(CN)cc2)NC(=O)[C@@H]2CCCN2C(=O)CNC1=O` [Compound 20, Bz(4-F)-D-Val-Tyr-c(Cys-Arg-Asp-Val-Gly-Pro-Phe(4-CH2NH2)-Cys)-3Pal-NH2] ({Benzoyl(4-F)}-[dV]YCRDVGP[Phe(4-CH2NH2)]C[3Pal]-NH2; disulfide 3-10), for which, in assay [1], the Emax was 100% and the IC50 is 0.18 nM. In assay [2], the Emax was 100%, the IC50 was 54 nM and the “selectivity ratio CGRP/AM2” value was 309.

Consider `CC(C)[C@@H]1NC(=O)[C@H](CC(=O)O)NC(=O)[C@H](CCCNC(=N)N)NC(=O)[C@@H](NC(=O)[C@H](Cc2ccc(O)cc2)NC(=O)[C@H](NC(=O)c2ccc(F)cc2)C(C)C)CSSC[C@@H](C(=O)N[C@@H](Cc2cccnc2)C(N)=O)NC(=O)[C@H](Cc2cccc(C#N)c2)NC(=O)[C@@H]2CCCN2C(=O)CNC1=O` [Compound 21, Bz(4-F)-D-Val-Tyr-c(Cys-Arg-Asp-Val-Gly-Pro-Phe(3-CN)-Cys)-3Pal-NH2] ({Benzoyl(4-F)}-[dV]YCRDVGP[Phe(3-CN)]C[3Pal]-NH2; disulfide 3-10), for which, in assay [1], the Emax was 100% and the half-inhibitory concentration (IC50) is 0.13 nM. In assay [2], the Emax was 99%, the IC50 was 33 nM and the “selectivity ratio CGRP/AM2” value is reported as 258.

As to `CC(C)[C@@H]1NC(=O)[C@H](CC(=O)O)NC(=O)[C@H](CCCNC(=N)N)NC(=O)[C@@H](NC(=O)[C@H](Cc2cccc(CN)c2)NC(=O)[C@H](NC(=O)c2ccc(F)cc2)C(C)C)CSSC[C@@H](C(=O)N[C@@H](Cc2cccnc2)C(N)=O)NC(=O)[C@H](Cc2ccc(O)cc2)NC(=O)[C@@H]2C=CCN2C(=O)CNC1=O` [Compound 22, Bz(4-F)-D-Val-Phe(3-CH2NH2)-c(Cys-Arg-Asp-Val-Gly-Dhp-Tyr-Cys)-3Pal-NH2] ({Benzoyl(4-F)}-[dV][Phe(3-CH2NH2)]CRDVG[ΔPro]YC[3Pal]-NH2; disulfide 3-10), in assay [1], the Emax is 100% and the IC50 was 0.19 nM. In addition, in assay [2], the Emax was 101%, the IC50 is 33 nM and the “selectivity ratio CGRP/AM2” value is given as 175.
